In patent publication US10406128B2, “Treatment and diagnosis of colon cancer” (The Rockefeller University, priority 2012, dated 2019):

Experiments:
LvM3b cells [1] = experiment: Liver metastasis in mice injected with LvM3b cells with or without CKB knockdown, pre-treated with metabolite; type: in vivo; settings: for rescue of metastasis suppression upon CKB knockdown: LvM3b cells with CKB knockdown, pre-treated 10 uM, day 21
Excerpt: CKB is known to regulate the reservoir of rapidly mobilized high-energy phosphates in tissues such as the brain and kidneys by catalyzing the transfer of a high-energy phosphate group from phosphocreatine to ADP, yielding ATP and creatine. It was hypothesized that CKB generation of ATP from phosphocreatine might provide colon cancer cells with an energetic advantage during hepatic colonization. To determine if ATP, the end-product of CKB catalysis, could rescue metastasis suppression seen upon CKB knockdown, CKB knockdown cells were loaded with ATP prior to injection of cells in experimental metastasis assays. Briefly, liver metastasis was examined in mice injected with 5×10^5 LvM3b with or without CKB knockdown and pre-treated with 100 uM ATP or vehicle. Metastatic burden was monitored by bioluminescent imaging and mice euthanized 21 days after injection.
Similar studies were done to determine whether creatine and phosphocreatine could rescue the phenotype of seen upon CKB knock-down. More specifically, assays were performed to examine liver metastasis in mice injected with 5×10^5 LvM3b cells pre-treated with 10 uM creatine, in the background of CKB knockdown. The mice were then euthanized as described above and liver extracted for ex vivo bioluminescent imaging at day 21 after injection. Also, colorectal cancer metastasis was examined in mice injected with 5×10^5 LvM3b cells with CKB knockdown and pre-treated with 10 uM creatine-phosphate. Liver metastasis was monitored by bioluminescent imaging and mice were euthanized as described above.

SLC6a8 [2] = target: T1, SLC6a8 (Homo sapiens, UniProt P48029); experiment: Liver metastasis by SW480 cells expressing shRNA targeting SLC6a8; type: in vivo, mice; settings: 5×10^5 SW480 cells; 28 days
T1 sequence (P48029 1-635): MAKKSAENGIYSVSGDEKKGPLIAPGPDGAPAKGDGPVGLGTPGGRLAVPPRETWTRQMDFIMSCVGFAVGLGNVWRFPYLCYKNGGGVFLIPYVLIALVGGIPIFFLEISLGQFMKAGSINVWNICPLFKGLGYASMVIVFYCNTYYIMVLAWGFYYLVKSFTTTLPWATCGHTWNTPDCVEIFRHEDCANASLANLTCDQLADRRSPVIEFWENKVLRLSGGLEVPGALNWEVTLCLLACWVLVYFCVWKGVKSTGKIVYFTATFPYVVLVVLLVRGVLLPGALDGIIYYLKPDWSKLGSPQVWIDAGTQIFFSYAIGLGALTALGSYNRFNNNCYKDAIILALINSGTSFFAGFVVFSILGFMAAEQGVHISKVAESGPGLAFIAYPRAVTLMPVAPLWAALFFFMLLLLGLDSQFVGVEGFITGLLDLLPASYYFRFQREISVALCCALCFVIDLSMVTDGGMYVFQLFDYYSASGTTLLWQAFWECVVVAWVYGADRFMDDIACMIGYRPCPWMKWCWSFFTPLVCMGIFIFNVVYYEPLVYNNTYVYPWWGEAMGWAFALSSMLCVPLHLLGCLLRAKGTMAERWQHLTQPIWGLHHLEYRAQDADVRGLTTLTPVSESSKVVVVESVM
Experimental: (§1) pLKO vectors expressing shRNA hairpins targeting CKB and SLC6a8 were ordered from Sigma-Aldrich. Two independent hairpins that gave the best knockdown of transcript levels were used for all experiments. These hairpin DNA and RNA sequences are listed below:
To further confirm the therapeutic benefit of knockdown of SLC6a8, another independent colon cancer cell line (SW480 colon cancer cell line) expressing a short hairpin RNA targeting SLC6a8 (shSLC6a8 #2) was injected into mice (FIG. 3b).

SLC6a8 [3] = target: T1, SLC6a8; experiment: Liver metastasis by PANC1 cells expressing shRNA targeting SLC6a8; type: in vivo, mice; settings: at 28 days
Excerpt: as §1
Lastly, the therapeutic benefit of targeting SLC6a8 was investigated in pancreatic cancer cells. To accomplish this, PANC1 pancreatic cancer cells expressing either an shRNA targeting SLC6a8 (shSLC6a8 #5) or a control RNA (empty pLKO vector) were injected into mice. Metastatic progression was monitored by bioluminescent imaging and mice were euthanized in the same manner described above.

SLC6a8 [4] = target: T1, SLC6a8; experiment: Liver metastasis by LvM3b cells expressing shRNA targeting SLC6a8; type: in vivo, mice; design: endogenous in cells; host or cells: LvM3b colon cancer cells (derivative of LS-174T) injected into mice; settings: three weeks after inoculation
Experimental: as §1
Briefly, mice were injected with LvM3b colon cancer cells expressing either of two independent short hairpin RNAs (shSLC6a8 #4 or shSLC6a8 #5) targeting the creatine transporter channel SLC6a8 or with control RNA (empty pLKO vector, ordered from Sigma Aldrich) (FIG. 3a). Again, liver metastasis was monitored by bioluminescent imaging and mice were euthanized three weeks after inoculation of cancer cells. Livers were extracted for gross histology.

[5] = test system: PANC1 pancreatic cancer cells; experiment: Cell viability of PANC1 cells, WST-1 reagent, Gemcitabine with or without B-GPA; type: cell-based, human; settings: 10 mM B-GPA, 48 hours, Gemcitabine 1 nm-1000000 nm
Experimental: Briefly, 10000 PANC1 cells were seeded in triplicate in 96-well plates and treated with various concentrations of Gemcitabine (1 nm, 10 nm, 100 nm, 1000 nm, 10000 nm, 100000 nm, and 1000000 nm) with or without 10 mM of B-GPA for 48 hours. Cell viability was then assayed using the WST-1 reagent (Roche Applied Science), with absorbance at 440 nm an indicator of the number of viable cells.

[6] = test system: Ls-LvM3b colon cancer cells; experiment: Cell viability of Ls-LvM3b cells, WST-1 reagent, 5'-Fluorouracil with or without B-GPA; type: cell-based, human; settings: 10 mM B-GPA, 48 hours
Experimental: To that end, 10,000 Ls-LvM3b cells were seeded in triplicate in 96-well plates and treated with various concentrations of 5′-Fluorouracil with or without 10 mM of B-GPA for 48 hours. Cell viability was assayed in the same manner described above with absorbance at 440 nm an indicator of the number of viable cells.

[7] = test system: PANC1 pancreatic cancer cells; experiment: Survival of PANC1 cells pre-treated with B-GPA in immunodeficient mice, bioluminescence imaging; type: in vivo; settings: PANC1 cells pre-treated 10 mM 48 hours
Experimental: Briefly, PANC1 pancreatic cancer cells were incubated for 48 hours with and without the presence of 10 mM of B-GPA, then injected into immunodeficient mice (5×10^5 PANC1 cells each mouse; 4 mice each in the treated and untreated cohort). The mice were imaged with bioluminescence imaging on day 1 after injection and signal was normalized to day zero. […] More specifically, the average photon flux ratios as measure by the bioluminescence imaging for the control group (without treatment of B-GPA) and the treated groups were about 2.7 and 1.6, respectively.

LvM3b cells [8] = experiment: Liver metastasis in mice injected with LvM3b cells, treated by daily intra-peritoneal injection, bioluminescent imaging; type: in vivo
Experimental: Mice were treated with 10 mg of cyclocreatine or saline vehicle, administered through intra-peritoneal injection. The treatment regime started one day after inoculation of tumor cells and continued until the mice were euthanized. Beta-guanidipropionic acid was administered at a dose of 200 ul of 0.5M solution through intra-peritoneal injection. Treatment regime were as that for cyclocreatine treatment.
Finally, assays were carried out to determine the impact of small-molecule inhibition of CKB and restriction of creatine availability on colon cancer metastasis. Cyclocreatine, which resembles phosphocreatine, is a transition-state analog for creatine kinases. To examine the effect of cyclocreatine, bioluminescent measurements of liver metastasis were carried out in mice injected with 5×10^5 LvM3b cells and treated with cyclocreatine daily for two weeks. The mice were then euthanized and livers excised for ex vivo imaging at the end of the treatment.
Similar assays were carried out using a creatine transporter inhibitor beta-guanidinopropionic acid (B-GPA). Bioluminescent measurements were used to examine liver metastasis in mice injected with 5×10^5 LvM3b cells and treated with B-GPA daily for two weeks.
In this example, assays were carried out to confirm the therapeutic potential of targeting the creatine transporter channel SLC6a8 by administering the small molecule B-GPA, which is an inhibitor of SLC6a8. […] To confirm this therapeutic effect, mice injected with LvM3b colon cancer cells we treated with either B-GPA or control vehicle (PBS) via intra-peritoneal injection daily for three weeks (FIG. 2). The mice were euthanized at three weeks and liver extracted for bioluminescent imaging and gross histology.
More specifically, the average photon flux ratios as measure by the bioluminescence imaging for the control group (without treatment of B-GPA) and the treated groups were about 800 and 100, respectively.

[9] = 5×10^5 LvM3b cells, treated daily for two weeks

creatine-phosphate
rescue of metastasis suppression upon CKB knockdown (LvM3b cells [1]): rescued metastasis suppression

shSLC6a8 #2: short hairpin RNA targeting SLC6a8, SEQ ID NO 19 (DNA) / 20 (RNA) (CCGGGCUGGUCUACAACAACACCUACUCGAGUAGGUGUUGUUGUAGACCAGCUUUUUG; listed as RNA, chemistry not fully specified)
metastasis of SW480 colon cancer cells (SLC6a8 [2]): significantly inhibited metastasis

shSLC6a8 #5: short hairpin RNA targeting SLC6a8, SEQ ID NO 14 (DNA) / 18 (RNA) (CCGGAUUACCUGGUCAAGUCCUUUACUCGAGUAAAGGACUUGACCAGGUAAUUUUUUG; listed as RNA, chemistry not fully specified)
pancreatic cancer metastasis (SLC6a8 [3]): significant reduction in pancreatic cancer metastasis
colon cancer metastasis (liver) (SLC6a8 [4]): inhibition of colon cancer metastasis

CN(CC(=O)O)C(=N)N [creatine]
rescue of metastasis suppression upon CKB knockdown (LvM3b cells [1]): rescued metastasis suppression

Nc1ncnc2c1ncn2[C@@H]1O[C@H](COP(=O)(O)OP(=O)(O)OP(=O)(O)O)[C@@H](O)[C@H]1O [ATP]
enhancement of suppressed metastasis phenotype (LvM3b cells [1]; LvM3b cells depleted of CKB, pre-treated 100 uM, 21 days): more than 10 folds
metastatic activity of cells expressing a short-hairpin control (LvM3b cells [1]; LvM3b control hairpin cells, pre-treated 100 uM): did not enhance the metastatic activity

N=C(N)NCCC(=O)O [B-GPA, beta-guanidinopropionic acid]
effect on cytotoxic activity of Gemcitabine [5]: enhanced the cytotoxic activity
effect on cytotoxic activity of 5'-Fluorouracil [6]: enhanced the cytotoxic activity
average photon flux ratio (bioluminescence imaging) ([7]; day 1 normalized to day zero, control group about 2.7): ~1.6
tumor burden of pancreatic cancer cells in vivo ([7]; one day after injection, P<0.05): significant reduction
metastatic colonization (liver metastasis, bioluminescence) (LvM3b cells [8]; [9]): significantly reduced metastatic colonization
average photon flux ratio (bioluminescence imaging) (LvM3b cells [8]; LvM3b cells, daily for three weeks, control group about 800): ~100
colon cancer metastasis to the liver (LvM3b cells [8]; LvM3b cells, intra-peritoneal injection daily for three weeks, P<0.05): significant reduction

NC1=NCCN1CC(=O)O [cyclocreatine]
comparison with standard-of-care FOLFOX chemotherapy (LvM3b cells [8]; [9]): superior to the current standard-of-care FOLFOX chemotherapy
metastatic colonization (liver metastasis, bioluminescence) (LvM3b cells [8]; [9]): significantly reduced metastatic colonization

shSLC6a8 #4: short hairpin RNA targeting SLC6a8, SEQ ID NO 13 (DNA) / 17 (RNA) (CCGGCUUAUUCCCUACGUCCUGAUCCUCGAGGAUCAGGACGUAGGGAAUAAGUUUUUG; listed as RNA, chemistry not fully specified)
colon cancer metastasis (liver) (SLC6a8 [4]): inhibition of colon cancer metastasis
